Values quoted from earlier work as cited in patent US20020018777A1, “STERILIZATION OF VIRUS INFECTED PLASMA” (priority 1995, published 2002).

Settings: concentrated BPL, animals

In the case of `O=C1CCO1` [BPL, β-propiolactone], the carcinogenicity is listed as “carcinogenic”.
